Measurements from US20240180865A1, “SUSTAINED-RELEASE LIPID PRE-CONCENTRATE” (TIONLAB THERAPEUTICS, priority 2021, published 2024).

Experiment: Peroxide value of liquid crystal former according to type of stabilizer
Type: physicochemical
Details: 0.3 g stabilizer in 3 g safflower oil, castor oil, cottonseed oil or oleic acid; 60° C. for two weeks
Procedure: 0.3 g of each of tocopherol, ViC_palmitate, mannitol, and ViC_Na was added as stabilizers to 3 g of each of safflower oil, castor oil, cottonseed oil, and oleic acid. After the resulting mixture was heated at 45 to 60° C. after DI treatment, it was cooled to room temperature and left to stand for 3 hours.
The degree of rancidity was evaluated by allowing the mixture to stand under harsh conditions of 60° C. for two weeks to measure the peroxide value of the liquid crystal former.
In order to measure the peroxide value, 0.3 g of the sample was weighed into a 300-ml Erlenmeyer flask, and then 30 ml of a solution of chloroform:glacial acetic acid (2:3) was added thereto. After a temporary dark place was created with silver foil paper, 1 ml of a KI saturated solution was added, and the resulting mixture was shaken vigorously, and then left to stand in the dark place for 5 minutes. Thereafter, 30 ml of distilled water was again added thereto, 1 ml of a 1% starch solution was added thereto, and then the resulting mixture was vigorously mixed. Thereafter, the mixture was titrated with a 0.01 N-Na2S2O3 standard solution while stirring with a magnetic stirrer, and the end point was set to the time when the dark blue color of the starch disappeared. Thereafter, the peroxide value of the sample was determined using the following equation. […]

CCCCCCCCCCCCCCCC(=O)OC[C@H](O)[C@H]1OC(=O)C(O)=C1O [ViC_palmitate, ascorbic palmitate]
peroxide value of the liquid crystal former: the peroxide values of all the liquid crystal formers used in this test example were low

tocopherol
peroxide value of the liquid crystal former: the peroxide value is higher than when no stabilizer is used
